Source: patent US20130261077A1 (priority 2012, published 2013)

The compounds below were run against T1, FimH-CRD (Escherichia coli, UniProt P08191) (assay: Competitive binding assay by fluorescence polarization, assay 2 (compounds prepared by robotics, plates frozen and thawed)).
T1 construct: The first 177 amino acids of the FimH protein; thrombin tag (printed as 'fusion protein with thrombin') (cleaved yes); made in house; host or cells: bacteria (pET21b plasmid)
Summary of the method: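 Compounds at 0.4 nM–75 μM final (12 points, 3-fold steps, duplicate) compete with a 5 nM Alexa 647 mannoside probe for 60 nM FimH-CRD; 5 h room-temperature incubation in pH 7.0 Tris buffer with 2.5% DMSO, FP read-out, Kd from fitted curves. Assay 1 uses manual dilution, assay 2 robot-made frozen/thawed plates.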

T1 sequence (P08191 22-177): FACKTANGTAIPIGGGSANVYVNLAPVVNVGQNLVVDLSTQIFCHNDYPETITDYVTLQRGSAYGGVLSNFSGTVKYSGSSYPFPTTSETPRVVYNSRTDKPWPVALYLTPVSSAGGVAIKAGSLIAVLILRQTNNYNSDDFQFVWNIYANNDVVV

`CC(=O)c1ccc(Oc2cccc([C@H]3O[C@H](CO)[C@@H](O)[C@H](O)[C@@H]3O)c2)cc1` [Compound 186, 1-[4-[3-[(2R,3S,4R,5S,6R)-3,4,5-trihydroxy-6-(hydroxymethyl)tetrahydropyran-2-yl]phenoxy]phenyl]ethanone] and `COC(=O)c1ccc(COc2cccc(C3O[C@H](CO)[C@@H](O)[C@H](O)[C@@H]3O)c2)cc1` (stereo partly drawn) [Compound 211] are within error of each other in Kd: 12.3 ± 8.9 nM for the first, 8 ± 2.4 nM for the second.

`CNC(=O)c1ccc(Oc2cc([C@H]3O[C@H](CO)[C@@H](O)[C@H](O)[C@@H]3O)ccc2OC)cc1` [Compound 187, 4-[2-methoxy-5-[(2R,3S,4R,5S,6R)-3,4,5-trihydroxy-6-(hydroxymethyl)tetrahydropyran-2-yl]phenoxy]-N-methyl-benzamide] and `COC(=O)c1ccc(Oc2cc([C@H]3O[C@H](CO)[C@@H](O)[C@H](O)[C@@H]3O)ccc2OC)cc1` [Compound 189, Methyl-4-[2-methoxy-5-[(2R,3S,4R,5S,6R)-3,4,5-trihydroxy-6-(hydroxymethyl)tetrahydropyran-2-yl]phenoxy]benzoate] are within error of each other in Kd: 9.9 ± 1.9 nM for the first, 8.1 ± 2.7 nM for the second.

`CNC(=O)c1cccc(Oc2cc([C@H]3O[C@H](CO)[C@@H](O)[C@H](O)[C@@H]3O)ccc2OC)c1` [Compound 188, 3-[2-methoxy-5-[(2R,3S,4R,5S,6R)-3,4,5-trihydroxy-6-(hydroxymethyl)tetrahydropyran-2-yl]phenoxy]-N-methyl-benzamide] and `CNC(=O)c1cccc(Oc2cc([C@H]3O[C@H](CO)[C@@H](O)[C@H](O)[C@@H]3O)ccc2F)c1` [Compound 203, 3-[2-fluoro-5-[(2R,3S,4R,5S,6R)-3,4,5-trihydroxy-6-(hydroxymethyl)tetrahydropyran-2-yl]phenoxy]-N-methyl-benzamide] are within error of each other in Kd: 11.1 ± 1.1 nM for the first, 9.2 ± 1.2 nM for the second.

Compared with `OC[C@H]1O[C@H](c2cccc(O)c2F)[C@@H](O)[C@@H](O)[C@@H]1O` [Compound 190, (2R,3S,4R,5S,6R)-2-(2-fluoro-3-hydroxy-phenyl)-6-(hydroxymethyl)tetrahydropyran-3,4,5-triol], `OC[C@H]1O[C@H](c2cc(O)ccc2F)[C@@H](O)[C@@H](O)[C@@H]1O` [Compound 192, (2R,3S,4R,5S,6R)-2-(2-fluoro-5-hydroxy-phenyl)-6-(hydroxymethyl)tetrahydropyran-3,4,5-triol] is 2.3-fold higher in Kd: 24.1 ± 15.3 nM for the first, 56.5 ± 9.1 nM for the second. The first binds more tightly here.

Going from `OC[C@H]1O[C@H](c2cc(O)ccc2OC(F)(F)F)[C@@H](O)[C@@H](O)[C@@H]1O` [Compound 191, (2R,3S,4R,5S,6R)-2-(hydroxymethyl)-6-[5-hydroxy-2-(trifluoromethoxy)phenyl]tetrahydropyran-3,4,5-triol] to `CNC(=O)c1ccc(Oc2ccc(OC(F)(F)F)c([C@H]3O[C@H](CO)[C@@H](O)[C@H](O)[C@@H]3O)c2)cc1` [Compound 195, N-methyl-4-[4-(trifluoromethoxy)-3-[(2R,3S,4R,5S,6R)-3,4,5-trihydroxy-6-(hydroxymethyl)tetrahydropyran-2-yl]phenoxy]benzamide], the Kd rises from 37.4 ± 17.2 nM to 178 ± 60.9 nM (4.8-fold). The first binds more tightly here.

`OC[C@H]1O[C@H](c2ccc(F)c(O)c2)[C@@H](O)[C@@H](O)[C@@H]1O` [Compound 193, (2R,3S,4R,5S,6R)-2-(4-fluoro-3-hydroxy-phenyl)-6-(hydroxymethyl)tetrahydropyran-3,4,5-triol] and `Cc1cc(O)cc([C@H]2O[C@H](CO)[C@@H](O)[C@H](O)[C@@H]2O)c1` [Compound 194, (2R,3S,4R,5S,6R)-2-(hydroxymethyl)-6-(3-hydroxy-5-methyl-phenyl)tetrahydropyran-3,4,5-triol] are within error of each other in Kd: 30.6 ± 1.1 nM for the first, 31 ± 29.4 nM for the second.

`CNC(=O)c1ccc(Oc2cc([C@H]3O[C@H](CO)[C@@H](O)[C@H](O)[C@@H]3O)ccc2F)cc1` [Compound 197, 4-[2-fluoro-5-[(2R,3S,4R,5S,6R)-3,4,5-trihydroxy-6-(hydroxymethyl)tetrahydropyran-2-yl]phenoxy]-N-methyl-benzamide] and `CNC(=O)c1ccc(Oc2cccc([C@H]3O[C@H](CO)[C@@H](O)[C@H](O)[C@@H]3O)c2F)cc1` [Compound 198, 4-[2-fluoro-3-[(2R,3S,4R,5S,6R)-3,4,5-trihydroxy-6-(hydroxymethyl)tetrahydropyran-2-yl]phenoxy]-N-methyl-benzamide] are within error of each other in Kd: 11.7 ± 2.8 nM for the first, 10.8 ± 5.2 nM for the second.

`CNC(=O)c1ccc(Oc2cc(C)cc([C@H]3O[C@H](CO)[C@@H](O)[C@H](O)[C@@H]3O)c2)cc1` [Compound 199, N-methyl-4-[3-methyl-5-[(2R,3S,4R,5S,6R)-3,4,5-trihydroxy-6-(hydroxymethyl)tetrahydropyran-2-yl]phenoxy]benzamide] and `CNC(=O)c1cccc(Oc2cc(C)cc([C@H]3O[C@H](CO)[C@@H](O)[C@H](O)[C@@H]3O)c2)c1` [Compound 204, N-methyl-3-[3-methyl-5-[(2R,3S,4R,5S,6R)-3,4,5-trihydroxy-6-(hydroxymethyl)tetrahydropyran-2-yl]phenoxy]benzamide] are within error of each other in Kd: 8.3 ± 2.2 nM for the first, 10.6 ± 0.9 nM for the second.

First: CNC(=O)c1cccc(Oc2cccc([C@H]3O[C@H](CO)[C@@H](O)[C@H](O)[C@@H]3O)c2F)c1 [Compound 200, 3-[2-fluoro-3-[(2R,3S,4R,5S,6R)-3,4,5-trihydroxy-6-(hydroxymethyl)tetrahydropyran-2-yl]phenoxy]-N-methyl-benzamide]
Second: CNC(=O)c1cccc(Oc2ccc(F)c([C@H]3O[C@H](CO)[C@@H](O)[C@H](O)[C@@H]3O)c2)c1 [Compound 202, 3-[4-fluoro-3-[(2R,3S,4R,5S,6R)-3,4,5-trihydroxy-6-(hydroxymethyl)tetrahydropyran-2-yl]phenoxy]-N-methyl-benzamide]
The Kd of the first is 2.3-fold lower: 8.4 ± 0.8 nM for the first, 19.2 ± 3.8 nM for the second.

First: CNC(=O)c1cccc(Oc2ccc(OC(F)(F)F)c([C@H]3O[C@H](CO)[C@@H](O)[C@H](O)[C@@H]3O)c2)c1 [Compound 201, N-methyl-3-[4-(trifluoromethoxy)-3-[(2R,3S,4R,5S,6R)-3,4,5-trihydroxy-6-(hydroxymethyl)tetrahydropyran-2-yl]phenoxy]benzamide]
Second: CNC(=O)c1cccc(COc2cccc([C@H]3O[C@H](CO)[C@@H](O)[C@H](O)[C@@H]3O)c2)c1 [Compound 227, N-methyl-3-[[3-[(2R,3S,4R,5S,6R)-3,4,5-trihydroxy-6-(hydroxymethyl)tetrahydropyran-2-yl]phenoxy]methyl]benzamide]
The Kd of the first is 2.8-fold higher: 103 ± 1.8 nM for the first, 37.1 ± 15.4 nM for the second. The second binds more tightly here.

`OC[C@H]1O[C@H](c2ccc(Oc3ccccc3)cc2)[C@@H](O)[C@@H](O)[C@@H]1O` [Compound 205, (2R,3S,4R,5S,6R)-2-(hydroxymethyl)-6-(4-phenoxyphenyl)tetrahydropyran-3,4,5-triol] and `OC[C@H]1OC(c2cccc(OCc3ccccc3)c2)[C@@H](O)[C@@H](O)[C@@H]1O` (stereo partly drawn) [Compound 222] are within error of each other in Kd: 38.7 ± 16.2 nM for the first, 40.7 ± 1.2 nM for the second.

Going from `OC[C@H]1O[C@H](c2cccc(OCCF)c2)[C@@H](O)[C@@H](O)[C@@H]1O` [Compound 206, (2R,3S,4R,5S,6R)-2-[3-(2-fluoroethoxy)phenyl]-6-(hydroxymethyl)tetrahydropyran-3,4,5-triol] to `CCC(C)COc1cccc(C2O[C@H](CO)[C@@H](O)[C@H](O)[C@@H]2O)c1` (stereo partly drawn) [Compound 207], the Kd falls from 28.4 ± 6.2 nM to 9.4 ± 4.3 nM (3-fold).

`OC[C@H]1OC(c2cccc(OCCCCC(F)(F)F)c2)[C@@H](O)[C@@H](O)[C@@H]1O` (stereo partly drawn) [Compound 209] and `OC[C@H]1OC(c2cccc(OCCCc3ccccc3)c2)[C@@H](O)[C@@H](O)[C@@H]1O` (stereo partly drawn) [Compound 217] are within error of each other in Kd: 12.5 ± 5.3 nM for the first, 12.1 ± 7.6 nM for the second.

Compared with `OC[C@H]1OC(c2cccc(OCC3CCO3)c2)[C@@H](O)[C@@H](O)[C@@H]1O` (stereo partly drawn) [Compound 210], `OC[C@H]1OC(c2cccc(OCC3CCCCC3)c2)[C@@H](O)[C@@H](O)[C@@H]1O` (stereo partly drawn) [Compound 215] is 1.8-fold lower in Kd: 24.2 ± 1.3 nM for the first, 13.1 ± 3.9 nM for the second. The second binds more tightly here.

`CNC(=O)COc1cccc(C2O[C@H](CO)[C@@H](O)[C@H](O)[C@@H]2O)c1` (stereo partly drawn) [Compound 212] and `CC1(COc2cccc(C3O[C@H](CO)[C@@H](O)[C@H](O)[C@@H]3O)c2)COC1` (stereo partly drawn) [Compound 214] are within error of each other in Kd: 18.9 ± 0.8 nM for the first, 12 ± 7.9 nM for the second.

Going from `OC[C@H]1OC(c2cccc(OCc3ccc(-n4cncn4)cc3)c2)[C@@H](O)[C@@H](O)[C@@H]1O` (stereo partly drawn) [Compound 213] to `CNC(=O)c1ccc(COc2cccc(C3O[C@H](CO)[C@@H](O)[C@H](O)[C@@H]3O)c2)cc1` (stereo partly drawn) [Compound 225], the Kd rises from 9.3 ± 0.5 nM to 34.5 ± 12.3 nM (3.7-fold).

First: OC[C@H]1OC(c2cccc(OCCC3CCCCC3)c2)[C@@H](O)[C@@H](O)[C@@H]1O (stereo partly drawn) [Compound 216]
Second: O=C(COc1cccc(C2O[C@H](CO)[C@@H](O)[C@H](O)[C@@H]2O)c1)C1CCCCC1 (stereo partly drawn) [Compound 218]
The Kd of the first is 1.9-fold higher: 16.4 ± 5.2 nM for the first, 8.7 ± 1.4 nM for the second.

`O=C(NCCCOc1cccc(C2O[C@H](CO)[C@@H](O)[C@H](O)[C@@H]2O)c1)c1ccccc1` (stereo partly drawn) [Compound 219] and `COC(=O)c1cccc(COc2cccc(C3O[C@H](CO)[C@@H](O)[C@H](O)[C@@H]3O)c2)c1` (stereo partly drawn) [Compound 223] are within 1.5-fold of each other in Kd: 16.3 ± 5.1 nM for the first, 23.2 ± 1.6 nM for the second.

Compared with `OC[C@H]1OC(c2cccc(OCc3ccccc3-c3ccccc3)c2)[C@@H](O)[C@@H](O)[C@@H]1O` (stereo partly drawn) [Compound 220], `Cc1nn(-c2ccccc2)nc1COc1cccc(C2O[C@H](CO)[C@@H](O)[C@H](O)[C@@H]2O)c1` (stereo partly drawn) [Compound 221] is 2-fold lower in Kd: 16.6 ± 4.4 nM for the first, 8.2 ± 0.5 nM for the second.

Compared with `OC[C@H]1OC(c2cccc(OCc3cc(Cl)cc(Cl)c3)c2)[C@@H](O)[C@@H](O)[C@@H]1O` (stereo partly drawn) [Compound 226], `Cc1cccc(COc2ccc(C3O[C@H](CO)[C@@H](O)[C@H](O)[C@@H]3O)cc2)n1` (stereo partly drawn) [Compound 228] is 3.5-fold lower in Kd: 32.1 ± 8.9 nM for the first, 9.2 ± 0.04 nM for the second.

First: CCC#CCOc1ccc(C2O[C@H](CO)[C@@H](O)[C@H](O)[C@@H]2O)cc1 (stereo partly drawn) [Compound 229]
Second: CC[C@H](C)COc1ccc(C2O[C@H](CO)[C@@H](O)[C@H](O)[C@@H]2O)cc1 (stereo partly drawn) [Compound 231]
The Kd of the first is 3.7-fold higher: 33.1 ± 4 nM for the first, 8.9 ± 1.4 nM for the second.

`N#CCCCOc1ccc(C2O[C@H](CO)[C@@H](O)[C@H](O)[C@@H]2O)cc1` (stereo partly drawn) [Compound 230] and `COCCCOc1ccc(C2O[C@H](CO)[C@@H](O)[C@H](O)[C@@H]2O)cc1` (stereo partly drawn) [Compound 233] are within error of each other in Kd: 13.9 ± 3.6 nM for the first, 10.3 ± 3.9 nM for the second.

`CC(C)CCOc1ccc(C2O[C@H](CO)[C@@H](O)[C@H](O)[C@@H]2O)cc1` (stereo partly drawn) [Compound 232] was tested, and the Kd was 8.5 ± 4.2 nM.
